# Measurements: patent USRE39420E1, “1,2-Diphenylpyrrole derivatives, their preparation and their therapeutic uses” (Sankyo Company, Limited, priority 1996, dated 2006)
# Tests used:
# [1] = biological target: T1, Cyclooxygenase-1 from Ram Seminal Vesicle Microsomes (RSVM) (Ovis aries, UniProt P05979); assay: Inhibitory activity on cyclooxygenase-1 from ram seminal vesicle microsomes (PGE2 ELISA); assay type: biochemical; details: PGE2 formation, read-out: Inhibitory Effect on COX-1[IC50(μM)]
# T1 construct: ram seminal vesicles were homogenised by a blender; from tissue; host or cells: ram seminal vesicles (microsomes)
# T1 sequence (P05979 25-600): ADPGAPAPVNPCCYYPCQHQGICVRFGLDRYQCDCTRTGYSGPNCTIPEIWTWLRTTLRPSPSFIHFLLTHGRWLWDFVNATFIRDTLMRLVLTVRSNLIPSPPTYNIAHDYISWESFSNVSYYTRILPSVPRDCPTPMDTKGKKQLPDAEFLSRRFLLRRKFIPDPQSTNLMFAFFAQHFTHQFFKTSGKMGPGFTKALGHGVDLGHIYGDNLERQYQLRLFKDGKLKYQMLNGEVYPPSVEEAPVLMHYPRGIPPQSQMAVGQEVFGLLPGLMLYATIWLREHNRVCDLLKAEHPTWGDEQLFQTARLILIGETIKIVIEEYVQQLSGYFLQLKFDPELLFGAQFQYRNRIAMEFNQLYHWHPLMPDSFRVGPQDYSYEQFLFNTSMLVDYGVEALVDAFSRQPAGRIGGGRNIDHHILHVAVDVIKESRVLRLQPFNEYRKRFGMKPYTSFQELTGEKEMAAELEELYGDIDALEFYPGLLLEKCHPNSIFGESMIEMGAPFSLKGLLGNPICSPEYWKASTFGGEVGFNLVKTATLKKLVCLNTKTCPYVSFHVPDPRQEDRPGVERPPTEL
# Protocol: (§1) In order to prepare cyclooxygenase-1 (COX-1) microsomes, ram seminal vesicles were homogenised by a blender. To prepare cyclooxygenase-2 (COX-2) microsomes, an expression vector which contains the human COX-2 gene was introduced into COS cells. The cells were homogenised by sonication after 66 hours cultivation. Microsomes were then prepared in accordance with conventional methods. Enzyme activity was assayed as follows. The assay mixture contained 10 μl of COX-1 or COX-2 microsomes (5 to 15 μg), 2 μl of sample dissolved in dimethyl sulfoxide, 50 μl of 200 mM Tris (pH 7.6), 10 μl of 20 mM reduced glutathione, 10 μl of 10 mM epinephrine, and 15.5 μl of distilled water. After preincubation at 37° C. for 15 minutes, 2.5 μl of 10 μM arachidonic acid (dissolved in ethanol) were then added to the mixture (final volume of 100 μl) and allowed to react at 37° C. for 30 minutes. The final dimethyl sulfoxide and ethanol concentrations were 2% and 2.5%, respectively. To the reaction mixture were then added 15 μl of ice-cooled 0.2M HCl to stop the reaction, and the mixture was cooled at 4° C. for 5 minutes. 15 μl of a 0.2M aqueous solution of sodium hydroxide were then added to the reaction mixture to neutralise the pH. The amount of PGE2, in the reaction mixture was measured using a commercially available ELISA kit (Cayman). IC50 was calculated from the regression line determined by the inhibition rates of PGE2 formation and the concentrations of the compound.
# [2] = biological target: T2, Human Recombinant Cyclooxygenase-2 (Homo sapiens, UniProt P35354); assay: Inhibitory activity on human recombinant cyclooxygenase-2 microsomes from COS cells (PGE2 ELISA); assay type: biochemical; details: for IC50: human recombinant COX-2 microsomes, PGE2 formation, read-out: Inhibitory Effect on COX-2 [IC50 (μM)]; for Selectivity (COX-1/COX-2): ratio of IC50 COX-1/COX-2
# T2 construct: made in house; host or cells: COS cells (transient expression; microsomes prepared after 66 hours)
# T2 sequence (P35354 18-604): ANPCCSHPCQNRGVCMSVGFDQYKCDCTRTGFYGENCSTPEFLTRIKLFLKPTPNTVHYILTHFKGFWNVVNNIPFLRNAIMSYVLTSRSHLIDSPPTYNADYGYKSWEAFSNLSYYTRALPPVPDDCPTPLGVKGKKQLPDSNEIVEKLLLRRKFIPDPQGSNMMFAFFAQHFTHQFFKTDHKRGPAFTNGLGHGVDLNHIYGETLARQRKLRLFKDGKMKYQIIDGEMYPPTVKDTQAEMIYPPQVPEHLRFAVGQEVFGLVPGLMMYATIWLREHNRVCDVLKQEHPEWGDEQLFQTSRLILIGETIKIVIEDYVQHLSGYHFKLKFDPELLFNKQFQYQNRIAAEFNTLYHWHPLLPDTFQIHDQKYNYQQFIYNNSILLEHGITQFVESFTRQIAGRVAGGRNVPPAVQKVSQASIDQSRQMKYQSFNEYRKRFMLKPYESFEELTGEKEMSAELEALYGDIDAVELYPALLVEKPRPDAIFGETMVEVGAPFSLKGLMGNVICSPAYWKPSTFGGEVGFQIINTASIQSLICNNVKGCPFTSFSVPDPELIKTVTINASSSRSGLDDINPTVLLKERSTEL
# Protocol: In order to prepare cyclooxygenase-1 (COX-1) microsomes, ram seminal vesicles were homogenised by a blender. To prepare cyclooxygenase-2 (COX-2) microsomes, an expression vector which contains the human COX-2 gene was introduced into COS cells. The cells were homogenised by sonication after 66 hours cultivation. Microsomes were then prepared in accordance with conventional methods.
# Enzyme activity was assayed as follows.
# as §1, with “The” for “In order to prepare cyclooxygenase-1 (COX-1) microsomes, ram seminal vesicles were homogenised by a blender. To prepare cyclooxygenase-2 (COX-2) microsomes, an expression vector which contains the human COX-2 gene was introduced into COS cells. The cells were homogenised by sonication after 66 hours cultivation. Microsomes were then prepared in accordance with conventional methods. Enzyme activity was assayed as follows. The”
# [3] = system: yeast-inflamed pain in rats; assay: Analgesic effect on yeast-inflamed pain in rats (Randall-Selitto method); assay type: in vivo, Wistar-Imamichi rats; details: Rattus norvegicus, oral, pain threshold 0.5, 1 and 2 hours after administration, read-out: Efficacy Rate (No. of animals in which drug was effective/No. of animals used in test) (converted)
# Protocol: The compound was suspended in 0.5%tragacanth and administered orally at a volume of 5 ml/kg. The control group was administered with 0.5% tragacanth only as a vehicle.
# Wistar-Imamichi rats (males, 5 week old, body weights: 80-100 g) were used in this test.
# The test was conducted in accordance with the method of Winter and Flataker [J. Pharmacol. Exp. Ther. 150, 165-171, (1965)], which is a modification of the original method of Randall and Selitto [Arch. Int. Pharmacodyn. Ther. 111, 405-419, (1957)]. The rats were fasted for 16 hours prior to use. Inflammation was induced by subcutaneous injection of 0.1 ml of a suspension of 20% beer yeast (Sigma) into the right hind footpad of the animal. After 4.5 hours, increasing pressure was applied to the inflamed footpad at a constant speed using an Analgesy meter (Trade mark) (Ugo-Basile Co.).
# First the average of pain threshold values at each time point (0.5, 1, and 2 hr) was calculated in a control group. If a pain threshold value exceeded 2 times the control average value at the same time point even once in the drug-treated groups, then the animal was considered to indicate efficacy. Efficacy rates of the drug were estimated by the evaluation method of Blake [J. Pharm. Pharm. 19, 367-373, (1967)].
# [4] = system: Carrageenan-induced Paw Edema in rats; assay: Carrageenan-induced paw edema test; assay type: in vivo, Wistar-Imamichi rats; details: Rattus norvegicus, oral, 3 hours after carrageenan, read-out: Inhibition Rate (%)
# Protocol: The same test compounds were subjected to the test as those in the Randall-Selitto test of Experiment 3. Wistar-Imamichi rats (males, 6 week old, body weights: 110-120 g) were used in this test.
# The method of Winter, et al. [Proc. Soc. Exp. Biol. Med. 111, 544-547, (1962)] was slightly modified to perform the test [Sankyo Annual Research Report 39, 77-111, (1989)]. The rats were fasted for 16 hours prior to use. Inflammatory edema was induced by the subcutaneous injection of 0.05 ml of a 1% carrageenan (Viscarin 402) solution into the right hind paw of the animal. The test compounds were administered orally 30 minutes before injection of carrageenan. The volume of the right hind foot was measured with a Plethysmometer (Trade mark) (Ugo-Basile Co.) just before administration of the test compound and 3 hours after injection of carrageenan to determine the edema intensity [(right foot volume after 3 hours/right foot volume before injection)-1].
# gastric mucosa = assay: Irritative effect on gastric mucosa; assay type: in vivo, Wistar rats; details: oral; dose producing 50% incidence of gastric ulcers, 3.5 hours after dosing
# Protocol: Experiments were performed according to the method described by Jahn and Adrian [Arzneim.-Forsch. 19, 36, (1969)]. Male Wistar rats weighing approximately 120 g were fasted for 16 hours before the experiment. The drugs were administered orally to rats as described in Experiment 3. Three and the half hours after dosing, the animals were killed under ether-anesthesia and the stomachs were placed into 1% of formalin. The stomach was opened by cutting along the greater curvature and the number and length of lesions were counted under a microscope (6.3×10). The ulcerogenicity in each animal was assessed according to Hitchens et. al. [Pharmacologist 9, 242, (1967)]. Incidence was determined as the rate of rats with 4 or more ulcers of more than 0.5 mm length, and UD50's (doses producing 50% incidence) were calculated from the incidence and the dose by probit (=probability unit) method.
Structure (SMILES),IC50 [1],IC50 [2],Selectivity (COX-1/COX-2) [2],responders at 12.5 mg/kg [3],inhibition in vivo at 50 mg/kg [4],UD50 (gastric mucosa)
"Cc1cc(-c2ccc(S(N)(=O)=O)cc2)n(-c2ccc(F)cc2)c1 [Example 20, 1-(4-Fluorophenyl)-4-methyl-2-(4-sulfamoylphenyl) pyrrole]",85 µM,0.023 µM,3696,–,–,–
"Cc1cc(-c2ccc(S(N)(=O)=O)cc2)n(-c2ccc(F)cc2)c1Cl [Example 38, 5-Chloro-1-(4-fluorophenyl)-4-methyl-2-(4-sulfamoylphenyl)pyrrole]",> 100 µM,0.023 µM,>4348,–,–,–
"Cc1cc(-c2ccc(S(C)(=O)=O)cc2)n(-c2ccc(C)c(C)c2)c1 [Example 56, 4-Methyl-1-(3,4-dimethylphenyl)-2-(4-methylsulfonylphenyl)pyrrole]",> 100 µM,0.018 µM,>5556,–,–,–
"Cc1ccc(-n2cc(C)cc2-c2ccc(S(N)(=O)=O)cc2)cc1 [Example 58, 4-Methyl-1-(4-methylphenyl)-2-(4-sulfamoylphenyl) pyrrole]",6.3 µM,0.019 µM,332,–,–,–
"COc1ccc(-n2cc(C)cc2-c2ccc(S(N)(=O)=O)cc2)cc1 [Example 62, 1-(4-Methoxyphenyl)-4-methyl-2-(4-sulfamoylphenyl)pyrrole]",1.5 µM,0.0097 µM,153,100%,55%,–
"Cc1cc(-c2ccc(Cl)cc2)n(-c2ccc(S(N)(=O)=O)cc2)c1 [Example 65, 2-(4-Chlorophenyl)-4-methyl-1-(4-sulfamoylphenyl) pyrrole]",13 µM,0.015 µM,867,100%,–,>100 mg/kg
"COc1ccc(-c2c(C)ccn2-c2ccc(S(N)(=O)=O)cc2)cc1 [Example 73, 2-(4-Methoxyphenyl)-3-methyl-1-(4-sulfamoylphenyl)pyrrole]",3 µM,0.025 µM,120,–,72%,–

# Further lines, with some results ahead:
IC50 [1],IC50 [2],Selectivity (COX-1/COX-2) [2],Structure (SMILES),responders at 12.5 mg/kg [3],inhibition in vivo at 50 mg/kg [4],UD50 (gastric mucosa)
25 µM,0.011 µM,2273,"COc1ccc(-c2cc(C)cn2-c2ccc(S(C)(=O)=O)cc2)cc1 [Example 80, 2-(4-Methoxyphenyl)-4-methyl-1-(4-methylsulfonylphenyl)pyrrole]",–,–,>100 mg/kg
3.7 µM,0.01 µM,370,Cc1cc(-c2ccc(S(N)(=O)=O)cc2)n(-c2ccc(Cl)c(Cl)c2)c1 [Example 103],–,56%,>100 mg/kg
6 µM,< 0.01 µM,>600,Cc1cc(-c2ccc(S(N)(=O)=O)cc2)n(-c2ccc(F)c(Cl)c2)c1 [Example 108],–,58%,–
3.8 µM,0.023 µM,165,Cc1cc(-c2ccc(S(N)(=O)=O)cc2)n(-c2ccc3c(c2)OCO3)c1 [Example 109],–,77%,–
